One assay concerns ACTH. The experiment in a line: Suppression of stress-induced elevation of plasma ACTH (light restraint stress). The class given is in vivo, Sprague-Dawley rats. On the procedure:
(§1) Ability to suppress stress-induced ACTH and corticosterone is a measure of the anti-inflammatory action of a test substance.
(§2) Adult male Sprague-Dawley rats (Charles River Breeding Laboratories, Wilmington, Mass.) weighing 300-325 grams were selected for use in this study. The rats were housed individually in wire-bottomed cages in a climate-controlled room (23° C.) with a 12 hour light/12 hour dark cycle of artificial lighting. The animals were maintained on this light cycle for 10 days prior to the start of the experiment. Purina cat chow and tap water were provided ad libitum.
(§3) Rats then were subjected to either no stress or light restraint stress for 5 or 15 minutes on days 0, 1, 3, 5 or 7. Each experimental group consisted of six animals. For light restraint testing, the rats were placed in individual wire-mesh cages which permitted limited movement in a lateral or longitudinal direction. Nonstressed control rats were gently removed from their cages and immediately sacrificed. All animals were killed immediately at the end of the stress periods by decapitation. Trunk blood was rapidly collected in iced tubes containing EDTA, and the plasma was separated by cold centrifugation and stored at −80° C. until radioimmunoassay.
Plasma ACTH was measured in duplicate by radioimmunoassay using a double-antibody technique (Diagnostic Products Corp., Los Angeles, Calif.). The intra-assay coefficient of variation was 8.25%; and the limit of sensitivity for the assay was 17 pg/mL of plasma.
(§4) The significance of differences among mean values was determined by analysis of variance (Anova) and Student-Newman-Keuls tests. The level of probability for all tests was 0.05.

In another assay the test system is corticosterone. Put plainly: Suppression of stress-induced elevation of corticosterone (15-minute restraint stress). Conditions: 15-minute stress. The class given is in vivo, Sprague-Dawley rats. On the procedure:
as §1, §2, §3
Plasma corticosterone was measured in duplicate by radioimmunoassay using a double-antibody technique (Cambridge Medical Tech., Inc., Billerica, Mass.). The intra-assay coefficient of variation was <2.63% and the interassay coefficient of variation was 7.1%. The limit of sensitivity for the assay was 0.39 ng/mL of plasma.
as §4

In another assay the test system is LH. The experiment in a line: Plasma LH in ovariectomized female rats (radioimmunoassay). Type of assay: in vivo, Sprague Dawley rats. As to conditions: all dosage levels tested: 0.003, 0.01 and 0.03 mg/kg i.v. daily for 5 days. The procedure: (§5) After recovery from surgery, ovariectomized female rats were divided into four groups and treated once a day for five days intravenously, via a bolus injection through the tail vein, as follows: (1) control, 27% HPβCD solution; (2) 0.003 mg/kg E2-CDS dissolved in 27% HPβCD solution; (3) 0.01 mg/kg E2-CDS dissolved in 27% HPβCD solution; and (4) 0.03 mg/kg E2-CDS dissolved in 27% HPβCD solution. A minimal number of ovariectomized (8 to 12) females were used per group. Intravenous treatments either with E2-CDS or HPβCD (controls) were carried out daily for 5 days beginning 2 days prior to the first day of behavior observations, in a volume of 0.05 mL/100 g body weight.
(§6) An experienced and active male rat was placed in the arena 5 minutes prior to the female. […] The lordosis quotient (LQ) expresses the estrogen effect on sexual receptivity and was calculated as follows: LQ=100×number of lordoses/10 mounts The observation of the sexual behavior of each female was carried out, in the case of E2-CDS, every day for 22 days; in the case of EB, investigations were carried out every day for 10 days. […] Citrated blood samples were taken by retro-orbital sinus puncture under light ether anesthesia. The samples were stored at 4EC for one hour, then centrifuged at 1000 g for 10 minutes. Plasma was separated and stored at −80EC until assayed. Plasma LH concentrations from individual samples were measured by double antibody radioimmunoassay kits obtained from Amersham Pharmacia Biotech, Rome, Italy. […] The limit of detection was 15 pg/mL.
(§7) Behavioral changes were analyzed using the Mann-Whitney U test (Siegel, Nonparametric Statistics for the Behavioral Sciences, New York; McGraw-Hill Book Company, Inc., 1956). The Fisher exact test was used for percentage comparisons (Zar, Biostatistical Analysis, Prentice Hall, Inc., Englewood Cliffs, N.J., 1974). Serum LH data were analyzed for each time and treatment group by analysis of variance (ANOVA) followed by Bonferroni posthoc test.

In assay [1] the test system is ovariectomized female rats. Put plainly: Lordosis quotient, female rat sexual behavior after ovariectomy. The class given is in vivo, Sprague Dawley rats. The procedure: Adult female Sprague Dawley rats (220-250 g) from Charles River Hungary Ltd., Godollo, Hungary, were used. Animals were kept in community cages (4 animals/cage) in a climate-controlled room (23∀2EC, 50-60% humidity), with a 14 hour light, 10 hour dark cycle of artificial lighting, using reversed light/dark cycle. Food and water were available ad libitum.
After a minimum five-day acclimatization period, animals were ovariectomized under ether anesthesia, then were left to recover for 3 weeks before testing (reconvalescence). All animals were treated in accordance with the guidelines of the European Communities Council Directive (86/609/EEC) and studies were permitted by the Institutional Animal Care Commission.
Estradiol benzoate and progesterone were obtained from Sigma Chemical Co. Inc., Budapest, Hungary. 2-Hydroxypropyl-β-cyclodextrin was purchased from Cerestar Inc., Hammond, Ind., US. […] E2-CDS as a 3% complex with HPβCD (E2-CDS-CD) was dissolved in distilled water and diluted with 27% HPβCD solution. E2-CDS-CD was synthesized by Alchem Laboratories Corporation, Alachua, Fla., US, using the procedure of Example 2 above.
as §5
The behavior test was conducted in a plexiglass observation cage during the dark cycle. During behavioral observations, only a dim red light was on.
as §6, §7

Setting [2] is: 0.003 mg/kg i.v. once a day for 5 days.
Setting [3] is: 0.01 mg/kg i.v. once a day for 5 days.
The mark [4] stands for this setting: 0.03 mg/kg i.v. once a day for 5 days.

We go through two molecules from patent US20050059615A1, “Transmucosal dosage forms for brain-targeted steroid chemical delivery systems” (priority 2003, published 2005).

Turning to `C[C@@H]1C[C@H]2[C@@H]3CCC4=CC(=O)C=C[C@]4(C)[C@@]3(F)[C@@H](O)C[C@]2(C)[C@@]1(O)C(=O)COC(=O)C1=CN(C)C=CC1` [DEX-CDS, 9-fluoro-11β,17-dihydroxy-16α-methyl-21-{[(1-methyl-1,4-dihydropyridin-3-yl)carbonyl]oxy}pregna-1,4-diene-3,20-dione], in the assay on ACTH (5-minute stress, days 1 and 3, single i.v. DEX-CDS 10 mg/kg or DEX 7.65 mg/kg (equimolar)), the “effect on stress-related elevations in ACTH” value is on record as “blocked”. Further, the “day through which suppression of ACTH elevations continued” value with ACTH (5-minute stress, single i.v. DEX-CDS 10 mg/kg) came out at 5 days. For the same molecule, in the assay with ACTH (15-minute stress, day 3, single i.v. DEX-CDS 10 mg/kg or DEX 7.65 mg/kg), the “effect on stress-related rises in ACTH” value is reported as “blocked”. Further, the “duration of suppression of elevations in ACTH” value in the assay on ACTH (15-minute stress, single i.v. DEX-CDS 10 mg/kg) was “at least 7 days”. The “suppression of corticosterone response to stress” value with corticosterone (day 3, single i.v. DEX-CDS 10 mg/kg or DEX 7.65 mg/kg) is recorded as 33%; in the assay on corticosterone (day 5, single i.v. DEX-CDS 10 mg/kg) it was 37%; with corticosterone (day 7, single i.v. DEX-CDS 10 mg/kg), 56%.

For `C[C@]12CC[C@@H]3c4ccc(OC(=O)c5ccccc5)cc4CC[C@H]3[C@@H]1CC[C@@H]2O` [estradiol benzoate, reference compound], in the assay with LH, the “effect on plasma LH levels” value is listed as “none of the tested dosages of estradiol benzoate gave statistically significant LH suppression”. In assay [1] (setting [2]), the “effect on lordosis quotient” value is “slightly enhanced”, the “period of the LQ effect” value fell in the range of 3 to 7 days and the “statistical significance of LQ effect” value was “not statistically significant”. In assay [1] (setting [3]), the “effect on lordosis quotient LQ” value is listed as “slightly increased”, the “period of the LQ effect” value was “day 3 to day 10” and the “statistical significance of LQ effect” value was “not statistically significant”. In assay [1] (setting [4]), the “effect on lordosis quotient LQ” value is “significantly enhanced”, the “maximal value of lordosis quotient (LQ)” value turned out to be 27.3 and the “period over which the LQ effect lasted” value is recorded as “day 3 to day 8”.
